According to patent US7927601B2, “Variants of hepatitis B virus with resistance to anti-viral nucleoside agents and applications thereof” (Melbourne Health, priority 2004, dated 2011):
Marks after values point to notes of the source that are not given here.

Assays:
Type in all cases: cell-based, HBV genotype A
[1] = tested on: L180M + M204V (LM) mutant HBV-DNA construct transfected into HepG2 cells; test: transient transfection cell culture assay, extracellular HBV-DNA by real-time PCR, rtL180M+rtM204V (LM) construct
Description: (§1) An extended (1.28×) HBV genome was cloned (HBV genotype A, subtype adw2) into a pBluescript KS (+) plasmid (Stratagene, La Jolla, Calif., USA), as described by Tacke et al, J Virol 78:8524-8535, 2004.
(§2) Three mutated HBV plasmids were constructed using a Quikchange (Registered) II site-directed mutagenesis kit (Stratagene, La Jolla, Calif., USA). Plasmids contained either mutations rtL180M and rtM204V (LM), rtL180M, rtM204V and rtA194T (LMAT), or rtA194T (AT). […]
(§3) HBV viral particles from the cell culture supernatant were precipitated using 26% polyethylene glycol (PEG 8000, Sigma, St. Louis, Mo., USA), followed by DNase 1 digestion (Takara, Shiga, Japan). […] A quantitative real-time PCR was used to quantify HBV-DNA. Briefly, a 189-bp fragment of the X region was amplified in a LightCycler system (Roche), using the QuantiTect Probe PCR kit (Qiagen) and the following probes and primers: 3FL-XHybprobe (5′-ACGGGGCGCACCTCTCTTTACGCGG fluorescein-3′ (SEQ ID NO:23)), 5LC-Xhybprobe (5′LCRed 640 nm-CTCCCCGTCTGTGCCTTCTCATCTGC PH-3′ (SEQ ID NO:24)), X sense (5′-GAC GTC CTT TGT YTA CGT CCC GTC-3′ (SEQ ID NO:25)), and X antisense (5′-TGCAGAGGTGAAGCGAAGTGCACA-3′ (SEQ ID NO:26)). […]
(§4) After adjusting for transfection efficiency, IC50 values were calculated from the HBV viral load using the following formula (Vandamme et al, Antiviral methods and protocols: 231, 2000): log IC50=log conc. […]

[2] = tested on: A194T (AT) mutant HBV-DNA construct transfected into HepG2 cells; test: transient transfection cell culture assay, extracellular HBV-DNA by real-time PCR, rtA194T (AT) construct
Description: as §1, §2, §3, §4

[3] = tested on: WT HBV-DNA construct transfected into HepG2 cells; test: transient transfection cell culture assay, extracellular HBV-DNA by real-time PCR, WT construct
Description: as §1
HepG2 cells were grown in Eagles minimum essential medium (LGC Promochem, Middlesex, UK), supplemented with 10% v/v fetal bovine serum at 37° C. and 5% v/v CO2. For cDNA transfections, 3×10^5 cells were seeded to semi-confluence onto each well of a 6-well plate and allowed to adhere overnight. […]
as §3
Extracellular HBV-DNA was examined by real-time PCR, 5 days post-transfection and IC50 values were calculated.

[4] = tested on: L180M, A194T, M204V (LMAT) mutant HBV-DNA construct transfected into HepG2 cells; test: transient transfection cell culture assay, extracellular HBV-DNA by real-time PCR, rtL180M+rtA194T+rtM204V (LMAT) construct
Description: as §1, §2, §3, §4

SMILES: CC(C)OC(=O)OCOP(=O)(CO[C@H](C)Cn1cnc2c(N)ncnc21)OCOC(=O)OC(C)C.O=C(O)/C=C/C(=O)O [tenofovir, Tenofovir disoproxil fumarate]
- IC50 ([1]; L180M + M204V (LM) construct, HepG2 cells, 5 days post-transfection): 71 µM
- Fold IC50, extracellular DNA ([1]; L180M + M204V (LM) versus WT, 5-10 fold = partial resistance): 5.7^a
- IC50 ([2]; A194T (AT) construct, HepG2 cells, 5 days post-transfection): 95 µM
- Fold IC50, extracellular DNA ([2]; A194T (AT) versus WT, 5-10 fold = partial resistance): 7.6^a
- Fold IC50, extracellular DNA ([3]; WT HBV construct (reference)): 1^
- IC50 ([3]; WT HBV construct, 5 days post-transfection): 12.4 µM
- IC50 ([4]; M204V (LMAT) construct, HepG2 cells, value above the cell toxic level of tenofovir): > 120 µM
- Fold IC50, extracellular DNA ([4]; M204V (LMAT) versus WT, >10-fold = resistance): >10*^b
